In this assay the test system is HIV-1 NL4-3 virus. Nature of the assay: Anti-HIV-1 activity, multicycle assay with HIV-1 NL4-3 in TZM-bl cells. The class given is cell-based. Conditions: for anti-HIV-1 activity (in words) / SI (selectivity index, ratio of CC50/EC50): TZM-bl cells; for anti-HIV-1 activity (in words): at the test concentration; for EC50: Human immunodeficiency virus 1, NL43, TZM-bl.

In the case of “Methyl (S)-2-(4-(3-((1-((4-methoxyphenyl)(methyl)amino)-1-oxo-3-phenylpropan-2-yl)carbamoyl)phenyl)-1H-1,2,3-triazol-1-yl)acetate [III-15m]”, the “anti-HIV-1 activity (in words)” value was “lost anti-HIV-1 activity completely”.

Usually EC50 stands for the concentration giving half of the maximal effect. As for `COc1ccc(N(C)C(=O)[C@H](Cc2cc(F)cc(F)c2)NC(=O)c2cccc(-c3cn(Cc4ccc(C(N)=O)cc4)nn3)c2)cc1` [II-10d, (S)-3-(1-(4-Carbamoylbenzyl)-1H-1,2,3-triazol-4-yl)-N-(3-(3,5-difluorophenyl)-1-((4-methoxyphenyl)(methyl)amino)-1-oxopropan-2-yl)benzamide], the EC50 was 23.4 ± 6.88 µM and the “anti-HIV-1 activity (in words)” value is “exhibited anti-HIV-1 activity at the test concentration”. In addition, the “SI (selectivity index, ratio of CC50/EC50)” value (Table 2) was greater than 1.37.

For `COc1ccc(N(C)C(=O)[C@H](Cc2cc(F)cc(F)c2)NC(=O)c2cccc(-c3cn(Cc4ccccc4[N+](=O)[O-])nn3)c2)cc1` [II-10a, (S)-N-(3-(3,5-Difluorophenyl)-1-((4-methoxyphenyl)(methyl)amino)-1-oxopropan-2-yl)-3-(1-(2-nitrobenzyl)-1H-1,2,3-triazol-4-yl)benzamide], the EC50 is greater than 35.5 µM.

Compound `COc1ccc(N(C)C(=O)[C@H](Cc2cc(F)cc(F)c2)NC(=O)c2cccc(-c3cn(CCCc4ccccc4)nn3)c2)cc1` [II-10g, (S)-N-(3-(3,5-Difluorophenyl)-1-((4-methoxyphenyl)(methyl)amino)-1-oxopropan-2-yl)-3-(1-(3-phenylpropyl)-1H-1,2,3-triazol-4-yl)benzamide] displayed an EC50 greater than 32.8 µM.

With `COc1ccc(N(C)C(=O)[C@H](Cc2cc(F)cc(F)c2)NC(=O)c2cn(Cc3ccc(C#N)cc3)nn2)cc1` [I-8i, (S)-1-(4-Cyanobenzyl)-N-(3-(3,5-difluorophenyl)-1-((4-methoxyphenyl)(methyl)amino)-1-oxopropan-2-yl)-1H-1,2,3-triazole-4-carboxamide], the EC50 turned out to be 5.84 ± 1.53 µM. The “SI (selectivity index, ratio of CC50/EC50)” value (Table 1) was greater than 3.23.

The compound `COc1ccc(N(C)C(=O)[C@H](Cc2ccccc2)NC(=O)c2cccc(-c3cn(Cc4ccc([N+](=O)[O-])cc4)nn3)c2)cc1` [III-15c, (S)-N-(1-((4-Methoxyphenyl)(methyl)amino)-1-oxo-3-phenylpropan-2-yl)-3-(1-(4-nitrobenzyl)-1H-1,2,3-triazol-4-yl)benzamide] registered an EC50 greater than 33.9 µM.

On to `COc1ccc(N(C)C(=O)[C@H](Cc2cc(F)cc(F)c2)NC(=O)c2cccc(-c3cn(CC(=O)Nc4ccccc4)nn3)c2)cc1` [II-10e, (S)-N-(3-(3,5-Difluorophenyl)-1-((4-methoxyphenyl)(methyl)amino)-1-oxopropan-2-yl)-3-(1-(2-oxo-2-(phenylamino)ethyl)-1H-1,2,3-triazol-4-yl)benzamide], for which it took 8.16 ± 2.56 µM to reach a half-maximal effect (EC50) and the “anti-HIV-1 activity (in words)” value is recorded as “exhibited anti-HIV-1 activity at the test concentration”. The “SI (selectivity index, ratio of CC50/EC50)” value (Table 2) is recorded as greater than 3.92.

In turn, `COc1ccc(N(C)C(=O)[C@H](Cc2cc(F)cc(F)c2)NC(=O)c2cn(Cc3ccccc3C)nn2)cc1` [I-8a, (S)-N-(3-(3,5-Difluorophenyl)-1-((4-methoxyphenyl)(methyl)amino)-1-oxopropan-2-yl)-1-(2-methylbenzyl)-1H-1,2,3-triazole-4-carboxamide] had an EC50 of 8.85 ± 2.69 µM. In addition, the “SI (selectivity index, ratio of CC50/EC50)” value (Table 1) was greater than 2.18.

`COc1ccc(N(C)C(=O)[C@H](Cc2ccccc2)NC(=O)c2cccc(-c3cn(Cc4cccc([N+](=O)[O-])c4)nn3)c2)cc1` [III-15b, (S)-N-(1-((4-Methoxyphenyl)(methyl)amino)-1-oxo-3-phenylpropan-2-yl)-3-(1-(3-nitrobenzyl)-1H-1,2,3-triazol-4-yl)benzamide]: the EC50 was greater than 33.9 µM.

`COc1ccc(N(C)C(=O)[C@H](Cc2cc(F)cc(F)c2)NC(=O)c2cccc(-c3cn(Cc4ccc(S(N)(=O)=O)cc4)nn3)c2)cc1` [II-10f, (S)-N-(3-(3,5-Difluorophenyl)-1-((4-methoxyphenyl)(methyl)amino)-1-oxopropan-2-yl)-3-(1-(4-sulfamoylbenzyl)-1H-1,2,3-triazol-4-yl)benzamide] came in with an EC50 greater than 30.3 µM.

Values taken from article PMC7034945 (RSC Advances, 2019).
